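Five compound concentrations were applied to cells in 96-well plates for 48 hours; endpoints were derived by simple linear interpolation of the resulting dose-response curve. The concentration for full growth arrest is given as TGI.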

Common to all, as to assay: NCI tumour cell line growth inhibition, 48 h
For experiment [1], the system named is OVCAR-5 ovarian.
Experiment [2] relates to UACC-62 melanoma.
For experiment [3], the system named is NCI-H226 lung.
For experiment [4], the system named is HL-60(TB) leukemia.
For experiment [5], the system named is XF 498 CNS.
Experiment [6] concerns HCC-2998 colon.
The subject of experiment [7] is HOP-62 NSCLC.
Experiment [8] has as its system SN12C renal.
Experiment [9] has as its system 786-0 renal.
Experiment [10] has as its system TK-10 renal.
For experiment [11], the system named is MDA-MB-435.
Experiment [12] relates to NCI/ADR-RES ovarian.
In experiment [13] the test system is PC-3 prostate.

For the compound `Cc1cc(C)nc(Nc2nc3ccc([N+](=O)[O-])cc3[nH]2)n1`, the TGI in [1], in [2], in [3], in experiment [4], in [5] and in experiment [6] was above 100 µM in each case. In addition, the TGI in [7], in [8], in experiment [9] and in experiment [10] was above 100 µM throughout.

`[N-]=[N+]=NC1C(Br)C(=O)NC(=O)N1[C@H]1C[C@H](O)[C@@H](CO)O1` (stereo partly drawn): the TGI in [1], in experiment [2], in experiment [4], in experiment [5], in experiment [6] and in experiment [7] was above 100 µM in each case. Also, the TGI in [8], in experiment [9] and in experiment [10] was above 100 µM each time.

For `CCN(CC)Cc1cc(Nc2c3ccccc3nc3c2[nH]c2ccccc23)ccc1O`, the TGI in experiment [1] worked out at 3.64 µM; in experiment [2] it was 3.01 µM; in [3], 5.06 µM; in [5], 3.18 µM; in experiment [7], 3.16 µM; in experiment [8], 6.22 µM. Also, the TGI worked out at 2.8 µM in experiment [9] and 8.61 µM in experiment [10].

Turning to `O=c1cc2ccccc2nn1-c1ccccc1Cl`, the TGI in experiment [1] is above 100 µM; in experiment [2], above 100 µM; in [3] it was above 100 µM; in [5], 77.5 µM; in [6], above 100 µM; in [7], above 100 µM. For the same compound, the TGI in experiment [8], in experiment [9] and in [10] was above 100 µM in each case.

With `CC1=NN(C(=O)Cc2ccccc2)C(=O)/C1=C\C=C\c1ccccc1`, the TGI in [1], in experiment [3], in experiment [4], in experiment [5], in experiment [6] and in experiment [7] was above 100 µM throughout. Moreover, the TGI in [8], in experiment [9] and in experiment [10] was above 100 µM each time.

As to `O=C1CC2(CCC(O)(c3ccc(Cl)cc3)C(C(=O)c3ccc(Cl)cc3)C2)C(=O)c2ccccc2N1` (stereo not drawn), the TGI is above 100 µM in experiment [11]; above 100 µM in experiment [1]; above 52.8 µM in experiment [2]; above 52.5 µM in experiment [3]; above 31.6 µM in [4]; above 44.5 µM in [12]. Further, the TGI is above 100 µM in experiment [6]; above 100 µM in experiment [7]; 24.8 µM in [8]; above 100 µM in experiment [13]; 4.24 µM in [9]; 39.2 µM in [10].

Consider `COC(=O)CC1C(=O)OCc2c1cc1n(c2=O)Cc2c-1nc1ccccc1c2OC` (stereo not drawn), for which the TGI in experiment [1], in experiment [2], in experiment [4], in [5], in experiment [6] and in experiment [7] was above 100 µM each time. For the same compound, the TGI in [8], in [9] and in [10] was above 100 µM each time.

Turning to `O=c1c2cccnc2nc2ccc3c[nH][nH]c3c12`, the TGI in experiment [11], in experiment [1], in experiment [2], in [3], in experiment [4] and in experiment [12] was above 10 µM throughout. Also, the TGI in experiment [6], in experiment [7], in [8], in experiment [13], in experiment [9] and in [10] was above 10 µM throughout.

On to `Cc1cc2oc(=O)[nH]c(=S)c2c(C)c1C`, for which the TGI in experiment [2], in experiment [3], in [4], in experiment [5], in [6] and in experiment [7] was above 100 µM each time. In addition, the TGI in [8], in experiment [9] and in [10] was above 100 µM each time.

In the case of `COC(=O)N/N=C/c1oc(-c2cccc([N+](=O)[O-])c2)c(-c2cccc([N+](=O)[O-])c2)c1[N+](=O)[O-]`, the TGI is above 100 µM in experiment [1]; above 100 µM in experiment [2]; 55.4 µM in experiment [4]; above 100 µM in [5]; above 100 µM in experiment [6]; above 100 µM in [7]. For the same compound, the TGI in experiment [8], in experiment [9] and in experiment [10] was above 100 µM in each case.

As to `Cc1ccccc1N(C)S(=O)(=O)c1ccccc1[N+](=O)[O-]`, the TGI in experiment [11], in [1], in experiment [2], in experiment [3], in experiment [4] and in experiment [12] was above 100 µM each time. Moreover, the TGI in experiment [6], in experiment [7], in experiment [8], in [13], in [9] and in experiment [10] was above 100 µM in each case.

The record behind these values is PubChem BioAssay (NCI).
